Reference: ChEMBL document CHEMBL1158451, “Generation of ligand-based pharmacophore model and virtual screening for identification of novel tubulin inhibitors with potent anticancer activity” (J Med Chem, 2009)
Calls of active or inactive are those of the source. No cut-off for these calls is given here.

Tests used:
KB [1] = assay: Growth inhibition of human KB cells by methylene blue assay; type: functional, cell-based
[2] = Inhibition of tubulin polymerization
[3] = Inhibition of bovine cerebral cortex tubulin polymerization up to 30 mins; design: species or system Bos taurus
KB [4] = assay: Cell cycle arrest in human KB cells assessed as loss of accumulation at G0/G1 phase after 24 hrs using propidium iodide staining by flow cytometry; type: functional, cell-based
HCT-116 [5] = assay: Antiproliferative activity against human HCT116 xenografted tumor histoculture at 10uM after 48 hrs by hematoxylin staining; type: functional, cell-based
SF-268 = assay: Antiproliferative activity against human SF268 cells after three generation of incubation by MTS assay; type: functional, cell-based
HCT-116 [6] = assay: Antiproliferative activity against human HCT116 xenografted tumor histoculture at 1 uM after 48 hrs by hematoxylin staining; type: functional, cell-based
KB [7] = assay: Antiproliferative activity against human KB cells after incubation for three generations by MTS assay; type: functional, cell-based
KB [8] = assay: Cell cycle arrest in human KB cells assessed as accumulation at G2/M phase after 24 hrs using propidium iodide staining by flow cytometry; type: functional, cell-based
KB [9] = assay: Cell cycle arrest in human KB cells assessed as accumulation at G2/M phase at 400 nM using propidium iodide staining by flow cytometry; type: functional, cell-based; settings: TDE = time-dependent effect
Bos taurus = species on record: Bos taurus; assay: (§1) Inhibition of bovine brain tubulin polymerization after 30 mins by […] assay
[10] = as §1; design: species or system Bos taurus
NCI-H460 = assay: Antiproliferative activity against human NCI-H460 cells after incubation for three generations by MTS assay; type: functional, cell-based
KB [11] = assay: Cell cycle arrest in human KB cells assessed as accumulation at sub-G1 phase at 400 nM using propidium iodide staining by flow cytometry; type: functional, cell-based; settings: TDE = time-dependent effect
HCT-116 [12] = assay: Antiproliferative activity against human HCT116 xenografted tumor histoculture at 100 uM after 48 hrs by hematoxylin staining; type: functional, cell-based
KB [13] = assay: Cell cycle arrest in human KB cells assessed as accumulation at G2/M phase at 400 nM after 24 hrs using propidium iodide staining by flow cytometry; type: functional
KB [14] = assay: Cell cycle arrest in human KB cells assessed as loss of accumulation at G0/G1 phase at 400 nM using propidium iodide staining by flow cytometry; type: functional, cell-based; settings: TDE = time-dependent effect
KB [15] = assay: Cell cycle arrest in human KB cells assessed as accumulation at G2/M phase at 800 nM after 24 hrs using propidium iodide staining by flow cytometry; type: functional
MCF7 = assay: Antiproliferative activity against human MCF7 cells after incubation for three generations by MTS assay; type: functional, cell-based

Row | SMILES | IC50 (KB [1]) [nM] | other results
1 | COc1ccc2c(C(=O)c3cc(OC)c(OC)c(OC)c3)cn(-c3ccc([N+](=O)[O-])cc3)c2c1 | 290 | –
2 | COc1ccc2c(C(=O)c3cc(OC)c(OC)c(OC)c3)cn(CCN3CCC[C@@H]3CO)c2c1 | 500 | –
3 | COc1ccc2c(C(=O)c3cc(OC)c(OC)c(OC)c3)cn(C)c2c1 | 34 | –
4 | COc1ccc2c(C(=O)c3cc(OC)c(OC)c(OC)c3)c(CO)[nH]c2c1 | 1.2 | –
5 | CCN(CC)CCn1cc(C(=O)c2cc(OC)c(OC)c(OC)c2)c2ccc(OC)cc21 | 1800 | –
6 | CCCCCCc1[nH]c2cc(OC)ccc2c1C(=O)c1cc(OC)c(OC)c(OC)c1 | 37.8 | –
7 | COc1ccc2c(C(=O)c3cc(OC)c(OC)c(OC)c3)c(CCCCO)[nH]c2c1 | 6.6 | –
8 | COc1ccc2c(C(=O)c3cc(OC)c(OC)c(OC)c3)cn(S(=O)(=O)c3ccccc3)c2c1 | 200 | –
9 | COc1ccc2c(C(=O)c3cc(OC)c(OC)c(OC)c3)cn(CCCN(C)C)c2c1 | 1700 | –
10 | Cc1ccc(C)c(Nc2cc(C)nc(-c3ccccc3O)n2)c1 | 3000 | –
11 | CCOC(=O)Cc1[nH]c2cc(OC)ccc2c1C(=O)c1cc(OC)c(OC)c(OC)c1 | 3.9 | –
12 | CCCCCc1[nH]c2cc(OC)ccc2c1C(=O)c1cc(OC)c(OC)c(OC)c1 | 38 | –
13 | COc1ccc2c(C(=O)c3cc(OC)c(OC)c(OC)c3)cn(CCCCO)c2c1 | 75 | –
14 | COc1ccc2c(C(=O)c3cc(OC)c(OC)c(OC)c3)cn(CCN3CCCCC3)c2c1 | 93 | –
15 | COc1ccc2c(C(=O)c3cc(OC)c(OC)c(OC)c3)cn(C(C)C)c2c1 | 287 | –
16 | CCCCn1c(C)c(C(=O)c2cc(OC)c(OC)c(OC)c2)c2ccc(OC)cc21 | 346 | –
17 | CCCCCn1cc(C(=O)c2cc(OC)c(OC)c(OC)c2)c2ccc(OC)cc21 | 350 | –
18 | COc1ccc2c(C(=O)c3cc(OC)c(OC)c(OC)c3)cn(CCN3CCN(C)CC3)c2c1 | 4100 | –
19 | COc1ccc2c(C(=O)c3cc(OC)c(OC)c(OC)c3)cn(Cc3ccncc3)c2c1 | 210 | –
20 | COc1ccc2c(C(=O)c3cc(OC)c(OC)c(OC)c3)cn(CCCCCCO)c2c1 | 70 | –
21 | COc1ccc2c(C(=O)c3cc(OC)c(OC)c(OC)c3)cn(C(=O)N3CCOCC3)c2c1 | 237 | –
22 | CCn1cc(C(=O)c2cc(OC)c(OC)c(OC)c2)c2ccc(OC)cc21 | 64 | –
23 | COc1ccc2c(C(=O)c3cc(OC)c(OC)c(OC)c3)cn(CCO)c2c1 | 55 | –
24 | COc1ccc2c(C(=O)c3cc(OC)c(OC)c(OC)c3)cn(CCN(C)C)c2c1 | 200 | –
25 | COC(=O)c1[nH]c2cc(OC)ccc2c1C(=O)c1cc(OC)c(OC)c(OC)c1 | 5.5 | –

Row | SMILES | IC50 (KB [1]) [nM] | other results
26 | COc1ccc2ccccc2c1-c1cc(C(=O)N/N=C/c2cccs2)[nH]n1 | 5700 | –
27 | COc1ccc2c(C(=O)c3cc(OC)c(OC)c(OC)c3)c(CN(C)C)[nH]c2c1 | 49.8 | –
28 | COc1ccc2c(C(=O)c3cc(OC)c(OC)c(OC)c3)c(C)n(CCN(C)C)c2c1 | 332 | –
29 | CCCCCCn1cc(C(=O)c2cc(OC)c(OC)c(OC)c2)c2ccc(OC)cc21 | 455 | –
30 | CCCn1cc(C(=O)c2cc(OC)c(OC)c(OC)c2)c2ccc(OC)cc21 | 180 | –
31 | COc1ccc2c(C(=O)c3cc(OC)c(OC)c(OC)c3)cn(CCCCCCN(C)C)c2c1 | 2100 | –
32 | O=C(/C=C/c1ccccc1)c1ccccc1 [CHALCONE] | – | IC50 [2]: 10 µM
33 | CCN(CC)CCn1c(C)c(C(=O)c2cc(OC)c(OC)c(OC)c2)c2ccc(OC)cc21 | 288 | –
34 | C1=NNCO1 [OXADIAZOLINE] | – | IC50 [3]: 4.5 µM
35 | COc1ccc2c(C(=O)c3cc(OC)c(OC)c(OC)c3)cn(CCCCCN(C)C)c2c1 | 1800 | –
36 | CCOC(=O)n1cc(C(=O)c2cc(OC)c(OC)c(OC)c2)c2ccc(OC)cc21 | 73 | –
37 | COc1ccc2c(C(=O)c3cc(OC)c(OC)c(OC)c3)c(CCCCCO)[nH]c2c1 | 57.3 | –
38 | COc1ccc2c(C(=O)c3cc(OC)c(OC)c(OC)c3)cn(CCN3CCN(c4ccccn4)CC3)c2c1 | 292 | –
39 | COc1ccc(-n2cc(C(=O)c3cc(OC)c(OC)c(OC)c3)c3ccc(OC)cc32)cc1 | 207 | –
40 | CCCc1[nH]c2cc(OC)ccc2c1C(=O)c1cc(OC)c(OC)c(OC)c1 | 11 | –
41 | COc1ccc2c(C(=O)c3cc(OC)c(OC)c(OC)c3)c(CCCO)[nH]c2c1 | 92 | –
42 | COc1ccc2c(C(=O)c3cc(OC)c(OC)c(OC)c3)cn(CCN3CCCCCC3)c2c1 | 280 | –
43 | COc1ccc2c(C(=O)c3cc(OC)c(OC)c(OC)c3)cn(CCN3CCCC3)c2c1 | 406 | –
44 | COc1ccc2c(C(=O)c3cc(OC)c(OC)c(OC)c3)c(C)n(CCN3CCCCC3)c2c1 | 222 | –
45 | COc1cc2c(c(N)c1OC)C(=O)/C(=C\c1cc(C)c(O)c(C)c1)C2 [INDANOCINE] | – | IC50 [2]: 1.7 µM
46 | Cc1ccc(CCC(=O)Nc2ncc(Cc3cc(Cl)ccc3Cl)s2)o1 | 187 | Activity (KB [4]): Dose-dependent effect; Activity (HCT-116 [5]): Active; IC50 (SF-268): 319 nM; Activity (HCT-116 [6]): Active; IC50 (KB [7]): 187 nM; Activity (KB [8]): Dose-dependent effect; Activity (KB [9]): tde; Activity (Bos taurus): Dose-dependent effect; IC50 [10]: 4.4 µM; IC50 (NCI-H460): 285 nM; Activity (KB [11]): tde; Activity (HCT-116 [12]): Active; Activity (KB [13]): 55.6%; Activity (KB [14]): tde; Activity (KB [15]): 70.3%; IC50 (MCF7): 236 nM
47 | COc1ccc2c(C(=O)c3cc(OC)c(OC)c(OC)c3)cn(CCCCN(C)C)c2c1 | 6000 | –
48 | COc1ccc2c(C)cc(N/N=C/c3ccccc3O)nc2c1 | 2000 | –
49 | CCCCc1[nH]c2cc(OC)ccc2c1C(=O)c1cc(OC)c(OC)c(OC)c1 | 14.3 | –
